Source: US8618101B2, “N-((1R,2S,5R)-5-(tert-butylamino)-2-((S)-3-(7-tert-butylpyrazolo[1,5-a][1,3,5]triazin-4-ylamino)-2-oxopyrrolidin-1-yl)cyclohexyl)acetamide, a dual modulator of chemokine receptor activity, crystalline forms and processes” (Bristol-Myers Squibb Company, priority 2009, dated 2013)

Key:
[1] = tested on: monocyte/macrophage infiltration; test: 48-hour thioglycollate (TG)-induced peritonitis model in hCCR-2 KI mouse; assay type: in vivo; conditions: for % inhibition of monocyte/macrophage infiltration: 48 h post TG
Description: The hCCR-2 KI mice (C57BL/6-SVJ129) were injected intraperitoneally with 1 ml of thioglycollate (TG) (Hardy Diagnostics). For each study, eight male mice per group were used. Example 1 was dosed orally 1 hour prior to TG injection. The vehicle used was 0.01 N HCl in water. Forty-eight hours post TG injection, peritoneal lavages were performed by injecting 5 ml PBS/10 mM EDTA/10% BSA into the peritoneal cavity.
For the 48-hour TG peritonitis study, Example 1 was dosed twice a day with the first dose one hour prior to TG injection. Total peritoneal cell counts were obtained on isolated cells by a cell counter. Cytospins were performed to determine differential leukocyte counts. The cells were stained for 3 minutes with Wright-Giemsa Stain (Sigma-Aldrich) and then rinsed with deionized water for 5 minutes. Differential counts were calculated based on a total of 200 cells counted per sample. Blood was also collected from the retro-orbital sinus at the end of each study in EDTA for determination of drug concentration.
For flow cytometric analysis, peritoneal exudate cells (1×10^6) were washed once with FACS buffer (PBS/0.5% BSA) and resuspended in FACS buffer. Cells were incubated with an Fc-blocking antibody (BD Pharmingen) on ice for 15 min followed by addition of the following antibodies (BD Pharmingen): PE conjugated anti-F4/80, FITC conjugated anti-Ly6C, and Alexa 647 conjugated anti-hCCR-2. After 45 min on ice, cells were fixed by BD CYTOFIX® for 15 min on ice, washed twice with FACS buffer, and resuspended in 200 μl FACS buffer. Cellular events (40,000) were acquired for each sample and data were analyzed using FloJo software (TreeStar). A FSC/SSC gate was set to include all monocytes (low SSC, higher FSC) while excluding granulocytes from the analysis. This gated population was then analyzed for Ly6C (FITC), F4/80 (PE) expression. Peritoneal monocytes/macrophage numbers were determined by multiplying total peritoneal cell counts obtained by the cell counter and the percentage of monocytes/macrophages identified by F4/80^+ cells from flow cytometry. Statistical significance of differences between means was analyzed using the paired two-tailed t test with significance set at p values below 0.05.
Example 1 was evaluated in the hCCR-2 KI mouse TG peritonitis model to determine its EC50 in inhibiting monocyte/macrophage infiltration. Mice were administered thioglycollate, and dosed orally with Example 1 at 10, 50, or 160 mg/kg BID. Forty eight hours post TG treatment, peritoneal lavage was obtained for cellular infiltrate analysis by flow cytometry.

human CCR-2 [2] = molecular target: T1, human CCR-2 (Homo sapiens, UniProt P41597); test: CCR-2 chemotaxis, MCP-1-induced, THP-1 cells; assay type: cell-based
T1 sequence (P41597 1-360 isoform P41597-2): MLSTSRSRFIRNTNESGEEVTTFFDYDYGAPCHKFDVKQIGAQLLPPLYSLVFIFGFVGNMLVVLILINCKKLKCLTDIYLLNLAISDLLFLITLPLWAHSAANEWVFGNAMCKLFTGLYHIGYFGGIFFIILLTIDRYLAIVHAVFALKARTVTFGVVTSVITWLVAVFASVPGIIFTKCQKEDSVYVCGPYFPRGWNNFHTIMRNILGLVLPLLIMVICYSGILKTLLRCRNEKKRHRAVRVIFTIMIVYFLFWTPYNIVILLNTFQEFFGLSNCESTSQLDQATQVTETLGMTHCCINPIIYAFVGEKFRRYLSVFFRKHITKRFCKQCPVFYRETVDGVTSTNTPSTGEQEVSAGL
Description: The human CCR-2 chemotaxis assay was conducted with the human monocytic cell line, THP-1. THP-1 cells were first labeled with the fluorescent dye Calcein-AM in phenol red-free, BSA-free RPMI-1640 (pH 7.4) at 37° C. for 30 minutes with gentle mixing every 15 minutes. The labeled cells were then washed and re-suspended at 1×10^5/ml in chemotaxis buffer (phenol red-free RPMI-1640, 0.1% BSA, pH 7.4). The test compound was diluted in chemotaxis buffer such that the final assay concentration ranged from 0.01 nM to 1 μM. The ligand MCP-1 (PeproTech Inc.) was diluted to 20 nM in chemotaxis buffer. To perform the assay, an equal volume of test compound dilutions was mixed with an equal volume of labeled THP-1 cells (Mixture 1), and an equal volume of test compound dilutions was mixed with an equal volume of diluted MCP-1 ligand (Mixture 2). Both mixtures were incubated independently at 37° C. for 10 minutes followed by gentle mixing. MCP-1-induced chemotaxis was then measured in a chemotaxis plate (Becton Dickinson) by placing 50 μl of Mixture 1 in the top chamber and 225 μl of Mixture 2 in the bottom chamber. The plate was covered with a lid and incubated at 37° C. for 30 minutes. 30 minutes later, the plate was read on a CYTOFLUOR®. All conditions were tested in duplicate. […]

human CCR-2 [3] = molecular target: T1, human CCR-2; test: Human CCR-2 binding assay with hPBMCs, 125I-human MCP-1 tracer; design: hPBMCs were isolated from human leukopak; host or cells: human peripheral blood mononuclear cells
Description: See also: Yoshimura et al., J. Immunol., 145:292 (1990). […] This was followed by adding 25 μl of Microscint 20 into each well. The plate was sealed and counted on the Trilux for 1 minute. […] All conditions were tested in duplicate.

[4] = Single-dose pharmacokinetics in monkeys; conditions: male, cynomolgus monkey, 1 mg/kg
Description: The pharmacokinetics of various test compounds were evaluated in male cynomolgus monkeys in a crossover-design. Monkeys were fasted overnight prior to PO dosing and fed 4 h post dose. A group of 1-3 animals (3 to 5 kg) received the compound by IV infusion (over 10 min) via a femoral vein and by oral gavage, with a 1-week washout between treatments. Serial blood samples (˜0.3 mL) were collected from a femoral artery at 0.17 (IV only), 0.25, 0.5, 0.75, 1, 2, 4, 6, 8, and 24 h post dose, and centrifuged at 4° C. (1500-2000×g) to obtain plasma. Samples were stored at −20° C. until analysis by LC/MS/MS.
The pharmacokinetic parameters were obtained by non-compartmental analysis of plasma concentration vs. time data (Kinetica software, Version 4.2, InnaPhase Corporation, Philadelphia, Pa.). The peak concentration (Cmax) and time for Cmax were recorded directly from experimental observations. The area under the curve from time zero to the last sampling time (AUC(0-T)) was calculated using a combination of linear and log trapezoidal summations. The total plasma clearance (CLTp), steady-state volume of distribution (Vss), apparent elimination half-life (T½) and mean residence time (MRT) were estimated after IV administration. Estimations of T½ was made using a minimum of 3 time points with quantifiable concentrations. The absolute oral bioavailability (F) was estimated as the ratio of dose-normalized AUC values following oral and IV doses.

CC(=O)N[C@@H]1C[C@H](NC(C)(C)C)CC[C@@H]1N1CC[C@H](Nc2ncnc3cc(C(C)(C)C)nn23)C1=O [Example 1, N-((1R,2 S,5R)-5-(tert-Butylamino)-2-((S)-3-(7-tert-butylpyrazolo[1,5-a][1,3,5]triazin-4-ylamino)-2-oxopyrrolidin-1-yl)cyclohexyl)acetamide]
% inhibition of monocyte/macrophage infiltration ([1]; 10 mg/kg oral BID): 25% | % inhibition of monocyte/macrophage infiltration ([1]; 50 mg/kg oral BID): 54% | % inhibition of monocyte/macrophage infiltration ([1]; 160 mg/kg oral BID): 63% | % inhibition of monocyte/macrophage infiltration ([1]; 200 mg/kg (different study), oral BID): 71% | EC50 ([1]; Mus musculus, estimated from four separate studies, hCCR-2 KI mouse, read-out: average EC50 for inhibition of monocyte/macrophage infiltration): 4.9 nM | maximal inhibition of monocyte/macrophage infiltration reached ([1]; four separate studies with multiple doses): ~70% | IC50 (human CCR-2 [2]): 0.8 ± 0.8 nM | Ki (human CCR-2 [3]; average, read-out: average Ki for binding to hCCR-2): 2 nM | IC50 (human CCR-2 [3]; hPBMCs, 125I-human MCP-1): 6.2 ± 2.7 nM | bioavailability ([4]; in vivo): 63% | clearance ([4]; plasma, intravenous): 16.4 mL/min/kg | AUC ([4]; plasma, oral): 1.3 µM·h
